Here are results for 4 compounds from patent publication US9241888B2, “Pharmaceutical or cosmetic composition for treating alopecia” (GIULIANI S.P.A., priority 2012, dated 2016).

A short description of data set [1]: Reactivity: air oxidation, chemiluminometric determination of N-nitroso derivatives. The following applies: 2 mM aqueous solution diluted with water/ethanol (85/15), exposed to ambient air 72 h. The class given is physicochemical. From the text:
The properties of 1,4-butanediamine,N-(3-aminopropyl)-N^1-methyl (II) and 1,4-butanediamine,N-(3-aminopropyl)-N^1-cyclohexyl (III) after exposure to air were studied by comparison with the corresponding non-substituted derivative, in which the N^1 amine group lacking the R substituent becomes a secondary amine group, namely 1,4-butanediamine,N-(3-aminopropyl). Since one of the common products of oxidation of the secondary amino group takes the form of the N-nitroso derivatives which are formed by reaction with the nitrogen oxides present in the air, the nitrosated derivatives which were formed upon leaving a solution of the test compounds in contact with the ambient air were determined as a parameter of reactivity.
The instrumentation used consisted of a stage on which both the analysis of the nitrite ions and the analysis of the N-nitrosamines were carried out, the latter under strong denitrosating conditions. The nitrogen oxide which developed in accordance with the amount of nitrite ions and that which developed in accordance with the quantity of nitroso groups were evaluated by way of a chemiluminometric detector.
The content of NO^2− ions was analysed using a reducing mixture of acetic acid/potassium iodide (5 ml/1 ml of 5% H2O soln.) at a temperature of 0-4° C. The nitroso groups were analysed using a denitrosating mixture of acetic acid/hydrobromic acid (5 ml/1 ml) at a temperature of 70° C.
The method for determining air oxidation of the compound was as follows.
a) a 2 mM solution of the test substance in purified water was doubly seeded, at an amount equal to 500 μl in appropriate wells of six-well plates of inert plastics material (polystyrene);
b) the solution in each well was diluted with 500 μl of a mixture of purified water and ethanol (85/15) free from contamination. This promotes the dispersion of the liquid film on the surface of the well;
c) the plate prepared in this manner is exposed to ambient air for 72 h
d) at the end of the exposure time, the residue in the well is eluted with 1 ml of purified water and then used for the chemiluminometric analysis.

In the next data set the test system is NCTC2544 cells. In words: Antioxidant test: production of reactive oxygen species (ROS), DCFH-DA spectrofluorometry. The class given is cell-based, human. The following applies: for Concentration of ROS products compared to control cells treated with H2O2: 1.5 h, α-tocopherol 250 μg/ml, spermidine and N-methylspermidine 1 nM-1 mM. On the procedure: The production of reactive oxygen species (ROS) was monitored by spectrofluorometry using 2′,7′-dichlorofluorescein diacetate (DCFH-DA) as described by Tobi et al. (Tobi S E, Paul N, T McMillan J. J Photochem. Photobiol, B 2000: 57: 102-112).
The aforementioned NCTC2544 cells (˜80% confluence) were detached with trypsin/EDTA and seeded at a density of 5×10^4 cells per well, in 96-well plates. Subsequently, the cells were treated with the N-methylspermidine according to the invention and spermidine. The following concentrations of N-methylspermidine and spermidine were tested: 1 nM, 500 nM, 1 μM, 500 μM, 1 mM (final concentration in the culture medium).
α-tocopherol (250 μg/ml) was used as a comparison. The plates were incubated at 37° C., in 5% CO2, for 1.5 h. The cells grown on basal medium with 10% FBS were used as a control.

Data set [2] concerns hair follicles (HF) in anagen VI phase from human scalp skin. Put plainly: Hair shaft elongation test, ex vivo organ culture of hair follicles. The following applies: 0.5 μM, day 6; for Elongation of the hair shaft with respect to the vehicle: every 48 hours. It is filed as cell-based. The protocol:
The activity of N-methylspermidine was tested in an ex vivo model which made it possible to measure the effect on the elongation of the hair shaft. The organ culture of hair follicles (HF) in anagen VI phase involved microdissection of HF from the skin of the human scalp (temporo-frontal area) after informed consent from the subjects who were undergoing surgery (face lifts), in accordance with the Helsinki Declaration and with the approval of the Ethics Committee of the University of Lübeck. […] For immunohistochemical studies, the isolated follicles were cultured for 6 consecutive days. Spermidine, N-methylspermidine and the vehicle (distilled water) were administered once for each change of culture medium (every 48 hours), at a concentration of 0.5 μM. The measurements of the shaft elongation after the treatment with vehicle, spermidine and N-methylspermidine were taken on days 0, 1, 4 and 6, using a Zeiss inverted binocular microscope with one eyepiece containing a reticle (Carl Zeiss, Oberkochen, Germany).

For data set [3] the test system is unchanged. In words: Anagen and catagen phases in the ex vivo hair follicle model. The class given is cell-based. On the procedure: The organ culture of hair follicles (HF) in anagen VI phase involved microdissection of HF from the skin of the human scalp (temporo-frontal area) after informed consent from the subjects who were undergoing surgery (face lifts), in accordance with the Helsinki Declaration and with the approval of the Ethics Committee of the University of Lübeck. […] For immunohistochemical studies, the isolated follicles were cultured for 6 consecutive days. Spermidine, N-methylspermidine and the vehicle (distilled water) were administered once for each change of culture medium (every 48 hours), at a concentration of 0.5 μM. The following results for the anagen and catagen phases, summarised in the graphs of FIGS. 5 and 6, were also obtained from the same ex vivo model of hair follicles (HF) described for the previous test of elongation of the hair shaft.

The test system of data set [4] is NCTC2544 human keratinocytes. In words: MTT Assay (cell viability / cytotoxicity). It is filed as cell-based. The following applies: 1 nM, 500 nM, 24 or 48 hours exposure. From the text:
MTT Assay is a test used for analysing cell viability (Mosmann, 1983). It is a colorimetric test based on the use of the tetrazolium salt MTT, which measures cell viability which can then be quantified by a microplate spectrophotometric reader. MTT (3-(4,5-dimethylthiazol-2-yl)-2,5-diphenyltetrazolium bromide, a tetrazole), a yellow compound, is reduced to formazan, a purple substance, in cellular mitochondria. The absorbance of this coloured solution can be quantified by measuring it at a given wavelength (570 nm) using a spectrophotometer. The maximum absorbance will depend on the solvent used. This reduction only takes place when the mitochondrial reductase enzymes are active, and the conversion to formazan can therefore be related directly to the number of viable cells. When the amount of formazan produced by cells treated with a substance is compared with the amount produced by untreated control cells, it is possible to deduce the efficacy of the tested substance in causing cell death by producing a dose-response curve. The solutions of MTT solubilised in PBS or cell culture medium, without phenol red, are of a yellowish colour. […] The resulting purple solution is analysed by spectrophotometry. An increase in the number of cells will result in an increase in the formazan obtained and in an increase in absorbance. […]

`NCCCCN(CCCN)C1CCCCC1` [N-(3-aminopropyl)-N^1-cyclohexyl-1,4-butanediamine]: the “Nitroso derivatives after 72 h exposure” value in data set [1] is on record as “absent”.

For the compound `CNCCCCNCCCN` [N-methylspermidine, N-(3-aminopropyl)-N′-methyl-1,4-butanediamine], in the data set on NCTC2544 cells, the “Concentration of ROS products compared to control cells treated with H2O2” value was “decrease in the concentration of ROS products”. Further, the “Antioxidant activity compared with that of spermidine” value in the data set with NCTC2544 cells (comparison with spermidine) is given as “no significant difference”. Besides, in data set [2], the “Elongation of the hair shaft with respect to the vehicle” value was “improve the elongation of the hair shaft significantly”; the “Difference in hair shaft elongation between spermidine and N-methylspermidine” value is “not statistically significant”. In addition, in data set [3] (0.5 μM each, 6 days), the “Effect of prolonging the anagen phase, compared with spermidine” value is given as “greater effect of prolonging the anagen phase” and the “Number of hairs entering the catagen phase, compared with spermidine” value was “significantly lower”. Also, the “Follicles entering catagen spontaneously” value in data set [3] (0.5 μM, after 6 days of treatment, vehicle more than 60%) is listed as about 30%. For the same compound, the “Percentage of hair follicles in the anagen phase” value in data set [3] (0.5 μM, after 6 days of treatment, versus vehicle) was “significant increase”. Also, the “Nitroso derivatives after 72 h exposure” value in data set [1] is listed as “absent”.

Consider `NCCCCNCCCN` [spermidine, N′-(3-aminopropyl)-1,4-diaminobutane, reference compound], for which the “Cytotoxic effects / cell viability in percent against the control” value in data set [4] was “no cytotoxic effects”. Moreover, the “Concentration of ROS products compared to control cells treated with H2O2” value with NCTC2544 cells is “decrease in the concentration of ROS products”. In data set [2], the “Elongation of the hair shaft with respect to the vehicle” value is recorded as “improve the elongation of the hair shaft significantly”. The “Nitroso derivatives after 72 h exposure” value in data set [1] is given as 2.3 ppm.

For the compound `Cc1c(C)c2c(c(C)c1O)CC[C@@](C)(CCC[C@H](C)CCC[C@H](C)CCCC(C)C)O2` [α-tocopherol, reference compound], the “Concentration of ROS products compared to control cells treated with H2O2” value in the data set with NCTC2544 cells is listed as “decrease in the concentration of ROS products”.
